Source: article PMC7074905, “Multivalent Lactose–Ferrocene Conjugates Based on Poly (Amido Amine) Dendrimers and Gold Nanoparticles as Electrochemical Probes for Sensing Galectin-3” (Nanomaterials, 2020)
pKd: −log10 of the molar value.

Target: T1, Human galectin-3 (Gal-3) (Homo sapiens, UniProt P17931)
T1 construct: gene LGALS3; mainly monomeric in solution
Test: isothermal titration calorimetry
Type: binding
Conditions: 20 mM phosphate pH 7.2, 150 mM NaCl, 25 °C; equal and independent sites model, n = 1.00 buffer and model; tetravalent ligand, n = 0.19 ± 0.05, cross-linking; read-out: K.10^-4 (M^-1)
Source text: isothermal titration calorimetry on Human galectin-3 (Gal-3)

T1 sequence (P17931 2-250): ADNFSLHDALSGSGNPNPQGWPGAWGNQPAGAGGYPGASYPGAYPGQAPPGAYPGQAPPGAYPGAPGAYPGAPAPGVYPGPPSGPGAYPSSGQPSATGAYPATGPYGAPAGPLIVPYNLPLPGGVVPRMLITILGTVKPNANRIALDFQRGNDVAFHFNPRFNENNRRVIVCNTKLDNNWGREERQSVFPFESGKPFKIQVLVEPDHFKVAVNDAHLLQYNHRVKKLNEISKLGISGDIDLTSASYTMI

pKd: 5.50
Substance: G0-PAMAM-(COCH2CH2TACH2FcCH2TACH2Lac)4 [compound 12]
